# From ChEMBL document CHEMBL1135619, “Cyclosporins: structure-activity relationships for the inhibition of the human MDR1 P-glycoprotein ABC transporter” (J Med Chem, 2002)
# Where a SMILES comes first, the peptide text is derived from it. [ ]: non-standard residue; d: D form. NMeBmt(8-OH) = CN[C@H](C(=O)O)[C@H](O)[C@H](C)C/C=C/CO; MeBmt = C/C=C/C[C@@H](C)[C@@H](O)[C@H](NC)C(=O)O; Val(2S-OH) = CC(C)[C@](N)(O)C(=O)O; NMeL = CN[C@@H](CC(C)C)C(=O)O; NMeV = CN[C@H](C(=O)O)C(C)C; Sar = CNCC(=O)O
# Target: MDR1 P-glycoprotein (ABCB1) (Homo sapiens, UniProt P08183)
# Experiment: (§1) Inhibitory activity against Human MDR1 P-Glycoprotein ABC Transporter using leukemia CEM cells
# Details: human, leukemia CEM cells
# MDR1 P-glycoprotein (ABCB1), sequence (P08183 whole entry): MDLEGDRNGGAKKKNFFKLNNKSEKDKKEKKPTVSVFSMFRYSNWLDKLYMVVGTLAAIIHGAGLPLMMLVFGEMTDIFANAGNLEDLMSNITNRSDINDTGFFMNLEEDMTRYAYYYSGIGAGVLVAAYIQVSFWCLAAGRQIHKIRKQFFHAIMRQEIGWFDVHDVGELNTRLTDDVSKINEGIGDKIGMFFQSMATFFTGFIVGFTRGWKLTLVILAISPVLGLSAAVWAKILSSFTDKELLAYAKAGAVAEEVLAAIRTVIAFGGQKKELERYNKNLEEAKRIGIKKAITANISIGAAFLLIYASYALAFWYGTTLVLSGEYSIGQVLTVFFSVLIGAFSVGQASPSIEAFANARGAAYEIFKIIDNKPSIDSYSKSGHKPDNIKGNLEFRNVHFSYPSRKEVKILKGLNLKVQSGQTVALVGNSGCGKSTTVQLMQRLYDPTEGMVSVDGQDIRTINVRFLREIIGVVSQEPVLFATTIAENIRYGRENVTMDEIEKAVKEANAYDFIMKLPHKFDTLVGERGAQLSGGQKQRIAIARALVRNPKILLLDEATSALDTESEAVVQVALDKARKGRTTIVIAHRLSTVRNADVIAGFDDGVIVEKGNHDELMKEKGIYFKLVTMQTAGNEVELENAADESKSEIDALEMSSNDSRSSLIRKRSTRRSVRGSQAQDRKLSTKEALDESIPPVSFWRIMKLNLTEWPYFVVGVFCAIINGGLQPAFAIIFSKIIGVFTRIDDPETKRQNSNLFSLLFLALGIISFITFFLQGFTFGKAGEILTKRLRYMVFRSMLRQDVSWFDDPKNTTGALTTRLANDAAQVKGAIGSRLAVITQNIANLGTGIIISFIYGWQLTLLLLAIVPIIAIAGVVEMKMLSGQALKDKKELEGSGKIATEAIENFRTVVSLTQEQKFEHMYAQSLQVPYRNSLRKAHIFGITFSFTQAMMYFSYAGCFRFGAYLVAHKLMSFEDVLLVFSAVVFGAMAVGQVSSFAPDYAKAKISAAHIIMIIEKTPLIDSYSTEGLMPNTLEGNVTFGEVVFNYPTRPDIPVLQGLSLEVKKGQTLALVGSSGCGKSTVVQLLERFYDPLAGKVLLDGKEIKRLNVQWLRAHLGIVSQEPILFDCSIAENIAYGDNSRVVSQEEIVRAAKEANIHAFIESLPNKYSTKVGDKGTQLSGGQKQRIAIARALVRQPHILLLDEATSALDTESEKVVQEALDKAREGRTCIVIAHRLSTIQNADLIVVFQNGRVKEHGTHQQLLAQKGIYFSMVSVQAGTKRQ
row,SMILES,IC50
1,C/C=C/C[C@@H](C)[C@@H](O)C1NC(=O)[C@H](C(C)C)N(C)C(=O)[C@H](CC(C)C)N(C)C(=O)[C@H](CC(C)C)N(C)C(=O)[C@@H](C)NC(=O)[C@H](C)NC(=O)[C@@H](CC(C)C)N(C)C(=O)[C@@H](C(C)C)NC(=O)[C@@H](CC(C)C)N(C)C(=O)CN(C)C(=O)[C@H]([C@@H](C)O)NC1=O (some centres undefined),17 µM
2,CC/C=C/C[C@@H](C)[C@@H](O)[C@H]1C(=O)N[C@@H](CC)C(=O)N(C)[C@@H](Cc2ccccc2)C(=O)N(C)[C@H](CC(C)C)C(=O)N[C@H](C(C)C)C(=O)N(C)[C@H](CC(C)C)C(=O)N[C@@H](C)C(=O)N[C@H](C)C(=O)N(C)[C@@H](CC(C)C)C(=O)N(C)[C@@H](CC(C)C)C(=O)N(C)[C@@H](C(C)C)C(=O)N1C,1.5 µM
3,CC(C)C[C@@H]1NC(=O)[C@H](CC(C)C)N(C)C(=O)[C@@](O)(C(C)C)NC(=O)[C@H](C)NC(=O)[C@H](CC(C)C)N(C)C(=O)[C@H](CC(C)C)NC(=O)[C@H](CC(C)C)N(C)C(=O)CN(C)C(=O)[C@H]([C@@H](C)O)NC(=O)[C@H]([C@H](O)[C@H](C)C/C=C/CO)N(C)C(=O)[C@H](C(C)C)N(C)C1=O (cyclo(A[Val(2S-OH)][NMeL]L[NMeV][NMeBmt(8-OH)]T[Sar][NMeL]L[NMeL])),15.8 µM
4,C/C=C/C[C@@H](C)[C@@H](O)[C@H]1C(=O)N[C@@H]([C@@H](C)O)C(=O)N(C)CC(=O)N(C)[C@@H](CC(C)C)C(=O)N[C@@H]([C@@H](C)CC)C(=O)N(C)[C@@H](CC(C)C)C(=O)N[C@@H](C)C(=O)N[C@](O)(C(C)C)C(=O)N(C)[C@@H](CC(C)C)C(=O)N[C@@H](CC(C)C)C(=O)N(C)[C@@H](C(C)C)C(=O)N1C (cyclo(A[Val(2S-OH)][NMeL]L[NMeV][MeBmt]T[Sar][NMeL]I[NMeL])),1.6 µM
5,CC[C@@H]1NC(=O)[C@H](C2CCCCC2C)N(C)C(=O)[C@H](C(C)C)N(C)C(=O)[C@H](CC(C)C)N(C)C(=O)[C@H](CC(C)C)N(C)C(=O)[C@@H](C)NC(=O)[C@H](C)NC(=O)[C@H](CC(C)C)N(C)C(=O)[C@H](C(C)C)NC(=O)[C@H](CC(C)C)N(C)C(=O)CN(C)C1=O (some centres undefined),13.1 µM

# Target: ATP-dependent translocase ABCB1 (Homo sapiens, UniProt P08183)
# Experiment: as §1
# Details: not given
# ATP-dependent translocase ABCB1, sequence (P08183 whole entry): as above
row,SMILES,IC50
1,C/C=C/C[C@@H](C)[C@@H](O)[C@H]1C(=O)N[C@@H]([C@@H](C)O)C(=O)N(C)CC(=O)N[C@@H](C(C)C)C(=O)N[C@@H](C(C)C)C(=O)N(C)[C@@H](CC(C)C)C(=O)N[C@@H](C)C(=O)N[C@H](C)C(=O)N(C)[C@@H](CC(C)C)C(=O)N(C)[C@@H](CC(C)C)C(=O)N(C)[C@@H](C(C)C)C(=O)N1C,> 100 µM
2,C/C=C/C[C@@H](C)[C@@H](O)[C@H]1C(=O)N[C@@H]([C@@H](C)O)C(=O)N(C)CC(=O)N[C@@H](CC(C)C)C(=O)N[C@@H](CC(C)C)C(=O)N(C)[C@@H](CC(C)C)C(=O)N[C@@H](C)C(=O)N[C@](O)(C(C)C)C(=O)N(C)[C@@H](CC(C)C)C(=O)N[C@@H](CC(C)C)C(=O)N(C)[C@@H](C(C)C)C(=O)N1C (cyclo(A[Val(2S-OH)][NMeL]L[NMeV][MeBmt]T[Sar]LL[NMeL])),4.3 µM
3,C/C=C/C[C@@H](C)[C@@H](O)[C@H]1C(=O)N[C@@H](CC)C(=O)N2CCC[C@H]2C(=O)N(C)[C@@H](CC(C)C)C(=O)N[C@@H](C(C)C)C(=O)N(C)[C@@H](CC(C)C)C(=O)N[C@@H](C)C(=O)N[C@H](C)C(=O)N(C)[C@@H](CC(C)C)C(=O)N(C)[C@@H](CC(C)C)C(=O)N(C)[C@@H](C(C)C)C(=O)N1C,5.2 µM
4,C/C=C/C[C@@H](C)C[C@H]1C(=O)N[C@@H](CC)C(=O)N(C)CC(=O)N(C)[C@@H](CC(C)C)C(=O)N[C@@H](C(C)C)C(=O)N(C)[C@@H](CC(C)C)C(=O)N[C@@H](C)C(=O)N[C@H](C)C(=O)N(C)[C@@H](CC(C)C)C(=O)N(C)[C@@H](CC(C)C)C(=O)N(C)[C@@H](C(C)C)C(=O)N1C,2.2 µM
5,C/C=C/C[C@@H](C)[C@@H](O)[C@H]1C(=O)N[C@@H]([C@@H](C)O)C(=O)N(C)CC(=O)N(C)[C@@H](CC(C)C)C(=O)N[C@@H](C(C)C)C(=O)N(C)[C@@H](CC(C)C)C(=O)N[C@@H](C)C(=O)N[C@](O)(C(C)C)C(=O)N(C)[C@@H](CC(C)C)C(=O)N[C@@H](CC(C)C)C(=O)N(C)[C@@H](C(C)C)C(=O)N1C (cyclo(A[Val(2S-OH)][NMeL]L[NMeV][MeBmt]T[Sar][NMeL]V[NMeL])),2.1 µM
6,C/C=C/C[C@@H](C)[C@@H](O)[C@H]1C(=O)N[C@@H]([C@@H](C)O)C(=O)N(C)CC(=O)N(C)[C@@H](CC(C)C)C(=O)N[C@@H](CC(C)C)C(=O)N(C)[C@@H](CC(C)C)C(=O)N[C@@H](C)C(=O)N[C@H](C)C(=O)N(C)[C@@H](CC(C)C)C(=O)N[C@@H](CC(C)C)C(=O)N(C)[C@@H](C(C)C)C(=O)N1C (cyclo(A[dA][NMeL]L[NMeV][MeBmt]T[Sar][NMeL]L[NMeL])),6 µM
7,C/C=C/C[C@@H](C)[C@@H](O)[C@H]1C(=O)N[C@@H]([C@@H](C)O)C(=O)N(C)CC(=O)N(C)[C@@H](CC(C)C)C(=O)N[C@@H](CC(C)C)C(=O)N(C)[C@@H](CC(C)C)C(=O)N[C@@H](C)C(=O)N[C@](O)(C(C)C)C(=O)N(C)[C@@H](CC(C)C)C(=O)N[C@@H](CC(C)C)C(=O)N(C)[C@@H](C(C)C)C(=O)N1C (cyclo(A[Val(2S-OH)][NMeL]L[NMeV][MeBmt]T[Sar][NMeL]L[NMeL])),1.6 µM
8,C/C=C/C[C@@H](C)[C@@H](O)[C@H]1C(=O)N[C@@H]([C@@H](C)O)C(=O)N(C)CC(=O)N(C)[C@@H](CC(C)C)C(=O)N[C@@H](CC(C)C)C(=O)N(C)[C@@H](CC(C)C)C(=O)N[C@@H](C)C(=O)N[C@H](C)C(=O)N(C)[C@@H](CC(C)C)C(=O)N[C@@H](C)C(=O)N(C)[C@@H](C(C)C)C(=O)N1C (cyclo(A[NMeV][MeBmt]T[Sar][NMeL]L[NMeL]A[dA][NMeL])),56 µM
9,CCCCCC[C@H]1C(=O)N[C@@H](CC)C(=O)N(C)CC(=O)N(C)[C@@H](CC(C)C)C(=O)N[C@@H](C(C)C)C(=O)N(C)[C@@H](CC(C)C)C(=O)N[C@@H](C)C(=O)N[C@H](C)C(=O)N(C)[C@@H](CC(C)C)C(=O)N(C)[C@@H](CC(C)C)C(=O)N(C)[C@@H](C(C)C)C(=O)N1C,4 µM
10,C/C=C/C[C@@H](C)[C@@H](O)[C@H]1C(=O)N[C@@H](CC)C(=O)N2CCC[C@@H]2C(=O)N(C)[C@@H](CC(C)C)C(=O)N[C@@H](C(C)C)C(=O)N(C)[C@@H](CC(C)C)C(=O)N[C@@H](C)C(=O)N[C@H](C)C(=O)N(C)[C@@H](CC(C)C)C(=O)N(C)[C@@H](CC(C)C)C(=O)N(C)[C@@H](C(C)C)C(=O)N1C,3.5 µM
11,CC(C)C[C@H]1C(=O)N[C@@H](C(C)C)C(=O)N(C)[C@@H](CC(C)C)C(=O)N[C@@H](C)C(=O)N[C@H](C)C(=O)N(C)[C@@H](CC(C)C)C(=O)N(C)[C@@H](CC(C)C)C(=O)N(C)[C@@H](C(C)C)C(=O)N(C)[C@@H](CC(C)C)C(=O)N[C@@H](C(C)C)C(=O)N(C)CC(=O)N1C (cyclo(A[dA][NMeL][NMeL][NMeV][NMeL]V[Sar][NMeL]V[NMeL])),7 µM
12,C/C=C/C[C@@H](C)[C@@H](O)[C@H]1C(=O)N[C@@H](CC)C(=O)NCC(=O)N(C)[C@@H](CC(C)C)C(=O)N[C@@H](C(C)C)C(=O)N(C)[C@@H](CC(C)C)C(=O)N[C@@H](C)C(=O)N[C@H](CO)C(=O)N(C)[C@@H](CC(C)C)C(=O)N(C)[C@@H](CC(C)C)C(=O)N(C)[C@@H](C(C)C)C(=O)N1C,> 30 µM
13,C/C=C/C[C@@H](C)[C@@H](O)[C@H]1C(=O)N[C@@H]([C@@H](C)O)C(=O)NCC(=O)N(C)[C@@H](CC(C)C)C(=O)N[C@@H](CC(C)C)C(=O)N(C)[C@@H](CC(C)C)C(=O)N[C@@H](C)C(=O)N[C@](O)(C(C)C)C(=O)N(C)[C@@H](CC(C)C)C(=O)N[C@@H](CC(C)C)C(=O)N(C)[C@@H](C(C)C)C(=O)N1C (cyclo(A[Val(2S-OH)][NMeL]L[NMeV][MeBmt]TG[NMeL]L[NMeL])),4 µM
14,CC[C@@H]1NC(=O)[C@H](CC2CCCCC2)N(C)C(=O)[C@H](C(C)C)N(C)C(=O)[C@H](CC(C)C)N(C)C(=O)[C@H](CC(C)C)N(C)C(=O)[C@@H](C)NC(=O)[C@H](C)NC(=O)[C@H](CC(C)C)N(C)C(=O)[C@H](C(C)C)NC(=O)[C@H](CC(C)C)N(C)C(=O)CN(C)C1=O,8.1 µM
